Test results as given in patent US9279806B2, “Water-soluble AIE luminogens for monitoring and retardation of fibrillation of amyloid proteins” (THE HONG KONG UNIVERSITY OF SCIENCE AND TECHNOLOGY, priority 2005, dated 2016).

Columns and labels:
[1] = system: G1 (ssDNA that mimics human telomeric sequence) / G-quadruplex; test: DNA probing and quadruplex recognition by FL/CD of TTAPE with G1; assay type: binding
Method: G1 is a 21-mer ssDNA that mimics human telomeric sequence. When the DNA is added into a solution of TTAPE in a Tris-HCl buffer, the solution starts to luminesce (FIG. 27A). Similar FL “lightup” phenomenon has been observed in the thiazole orange system. The I/I0 ratio of TTAPE at 470 nm increases rapidly in a narrow DNA concentration range and reaches its maximum at [G1]=5 μM (FIG. 27B). While conventional FL dyes suffer from self-quenching problems at high dye concentrations, the FL of TTAPE is continuously intensified with increasing its concentration (FIG. 28 and FIG. 27B), thanks to its unique AIE feature. In the aqueous buffer, the cationic dye spontaneously binds to the anionic DNA via electrostatic attraction, resulting in the formation of a TTAPE/G1 complex. Hydrophobic interaction between TTAPE and G1 may have also played a role in the binding process. These intermolecular forces lock conformations of the TTAPE molecules bound to the G1 strands. Consequently, the intramolecular rotations of TTAPE are restricted, which thus blocks its radiationless relaxation pathways and activates its FL process.
A complex of ssDNA and TTAPE was prepared by mixing 10 μL G 1 (0.1 mM) and 50 μL TTAPE (0.01 mM) in 5 mM Tris-HCl buffer in a 1.5 ml Eppendorf cup. The solution was incubated at 4° C. for 30 min. G-quadruplex formation was induced by adding 10 μl of a 1.0 M KCl solution into the Eppendorf cup. The final concentrations of TTAPE and G1 were kept at 4.5 and 9.0 μM, respectively. For other cationic species, the same amounts of corresponding salts were used. Kinetic experiment was conducted immediately after the injection of the cationic solution, while other spectral measurements were performed after an incubation period of 30 min.
DNA samples of G1, C1 and C2 were obtained from Operon in desalt purity and used without further purification. G1 was chosen as a model ssDNA mimicking the human telomeric repeat sequence d(T2AG3), which is capable of forming intramolecular G-quadruplex. Concentrations of the DNA strands were determined by measuring their absorptivity (E) values at 260 nm in a 100 μL quartz cuvette [ε(×10^5 M^−1 cm^−1): 2.14 (G1), 1.85 (C1), 1.85 (C2)]. Water was purified by a Millipore filtration system. Buffer solution was prepared by titrating 5 mM Tris with HCl until its pH value reached 7.50. All experiments were performed at room temperature unless otherwise specified.

[2] = system: G1; test: Time-dependent FL of G1 folding; assay type: biochemical, human
Method: Time-dependent FL was measured on a FluostarOptima multifunctional microplate reader (BMG Labtechnologies) with λex/λem set at 350/470 nm. To gain insight into dynamics of the folding process of G1, time-dependent FL measurements are performed. Solutions containing TTAPE and G1 are first incubated for 30 min to ensure complete dye/DNA complexation and transferred to a 96-well microtiter plate after incubation. Appropriate amounts of metal ions were added by an automatic injection mode. Kinetic measurements were performed at 20° C. and the FL data were recorded in every 4 s. The change in the emission intensity (1) of the solution after the addition of K^+ can be fitted by a second-order exponential curve: I=A1e^−t/τ1+A2e^−t/τ2+c Eq. (1) where t is the time, τ1 and r2 are the time constants of FL recovery, A^1 and A^2 are the respective amplitudes (the folding process is characterized by negative A values), and c is the FL intensity at t=infinity. Mean time constant (<τ>) was calculated according to eq. 2:
In one embodiment, a solution of potassium chloride is then injected at time t=0 (automatic injection mode) and the emission intensity at 470 nm is monitored. The emission drops abruptly to ˜30% of its original intensity at the beginning but starts to recover after ˜8 s and finally reaches a plateau at ˜320 s (FIG. 42). […]

[3] = system: G1; test: PAGE assay of G1, gel poststaining; design: species or system human; settings: gel poststained with 10 μM TTAPE for 5 min
Method: The FL “turn-on” switching of TTAPE by binding to G1 strand inspires us to check whether it can be used as a DNA marker in the PAGE assay. Electrophoresis assay of G1 was performed on a Hoefer miniVE system in 1xTBE buffer under nondenaturing conditions using a 20% native poly(acrylamide) gel at 100V for 3 h at […]. An AlphaDigiDoc™ system with a DE-500 MultiImage™ II light cabinet and an ML-26 UV transilluminator (Alpha Innotech) was used for data collection and analysis. The gel was poststained with a 10 μM TTAPE solution for 5 min at room temperature, rinsed with distilled water, and photographed under UV light at 290-330 nm by the gel documentation system. EB was used to poststain the gel in parallel for comparison. Concentrations of G1 in the range of 0.5-10.0 μM were used to check the visualizability of the dye-stained DNA in the PAGE assay.
After running PAGE of G1 in a Tris-borate-ethylene-diaminetetraacetic acid (TBE) buffer, the gel is stained by a TTAPE solution for 5 min. […] Ethidium bromide (EB) is a widely used visualization agent for PAGE assay. […] The G1 bands are not visualized until the gel has been stained by EB for as long as 30 min. Band visualization by EB is usually realized by its intercalation into the hydrophobic region of DNA, which makes the staining a slow process. […]

[4] = entry 1: K+ added to TTAPE/G1 mixture, room temperature
[5] = entry 2: G1 added to TTAPE/K+ mixture
[6] = entry 3: TTAPE added to G1/K+ mixture

In the case of `CC[N+](CC)(CC)CCOc1ccc(C(=C(c2ccc(OCC[N+](CC)(CC)CC)cc2)c2ccc(OCC[N+](CC)(CC)CC)cc2)c2ccc(OCC[N+](CC)(CC)CC)cc2)cc1.[Br-].[Br-].[Br-].[Br-]` [TTAPE, 1,1,2,2-tetrakis[4-(2-triethylammonioethoxy)phenyl]ethene tetrabromide], the “Red-shift of excitation and emission spectra on quadruplex formation” value ([1]; K+ added to TTAPE/G1) is reported as about 20 nm, the “G1 concentration at which I/I0 at 470 nm reaches its maximum” value ([1]; TTAPE 4.5 μM in Tris-HCl buffer) is reported as 5 µM and the “CD intensity (relative intensity at 295 nm)” value [1, 4] is reported as 1.00. For the same compound, the “FL intensity (relative intensity at 492 nm)” value [1, 4] was 1.00, the “CD intensity (relative intensity at 295 nm)” value [1, 5] was 0.92 and the “FL intensity (relative intensity at 492 nm)” value [1, 5] was 0.82. For the same compound, the “CD intensity (relative intensity at 295 nm)” value [1, 6] was 0.88, the “FL intensity (relative intensity at 492 nm)” value [1, 6] was 0.70 and the “Weighted mean time constant (<τ>) of FL recovery” value ([2]; K+ 0.5 M injected into TTAPE/G1, 470 nm, 20 °C) was 116 s. The “Time at which recovered emission reaches a plateau” value ([2]; K+ injected into TTAPE/G1, 470 nm) was about 320 s and the Detectable G1 concentration (sensitivity test) [3] was 0.5 µM.
